Molecular target: T1, hMrgpMRGPRX2 (Homo sapiens, UniProt Q96LB1)
T1 construct: expressed in transfected cells
T1 sequence (Q96LB1 1-330): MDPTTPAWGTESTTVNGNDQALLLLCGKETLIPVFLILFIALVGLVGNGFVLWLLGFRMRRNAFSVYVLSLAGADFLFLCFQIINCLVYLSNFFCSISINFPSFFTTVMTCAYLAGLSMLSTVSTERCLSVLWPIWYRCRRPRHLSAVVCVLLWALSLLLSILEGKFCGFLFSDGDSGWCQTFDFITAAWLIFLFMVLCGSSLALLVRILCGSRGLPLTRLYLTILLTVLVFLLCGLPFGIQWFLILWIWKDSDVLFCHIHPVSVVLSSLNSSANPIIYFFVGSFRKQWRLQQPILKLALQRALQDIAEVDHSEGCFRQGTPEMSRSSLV
Test: FLIPR intracellular calcium mobilization, antagonist activity in recombinant hMrgpMRGPRX2 expressing cells
Format: cell-based
Settings: read-out: Human MrgprX2 Antagonist pIC50 (converted)
In short: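 Antagonist activity was read as inhibition of intracellular calcium mobilization (FLIPR) in recombinant cells expressing human MrgprX2. Potency was also checked in LAD-2 human mast cells with endogenous receptor, and orthologue activity in cells expressing mouse MrgprB2, mouse MrgprA1, and gerbil, Chinese hamster and cynomolgus orthologues.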

Compared with `CCN(C[C@@H](O)C(F)(F)F)C(=O)Nc1cc(Oc2cccc(F)c2)ncn1` [Compound E291, 1-ethyl-3-[6-(3-fluorophenoxy)pyrimidin-4-yl]-1-[(2R)-3,3,3-trifluoro-2-hydroxy-propyl]urea], `CCN(C[C@@H](O)C(F)(F)F)C(=O)Nc1cc(Oc2cccc(F)c2)c(F)cn1` [Compound E161] is 1000-fold lower in IC50: 0.891 µM for the first, 0.000891 µM for the second.

`CCN(C[C@@](C)(O)C(F)(F)F)C(=O)Nc1cnc(Oc2cc(F)ccc2F)cn1` [Compound E259] and `CCN(C[C@@](C)(O)C(F)(F)F)C(=O)Nc1cnc(Oc2ccc(F)cc2F)cn1` [Compound E258] are within 1.5-fold of each other in IC50: 0.0017 µM for the first, 0.00155 µM for the second.

First: CC1(C)C(C(=O)Nc2ccc(Oc3ccc(F)nc3)cn2)C1(C)C [Compound E056]
Second: CC1(C)C(C(=O)Nc2ccc(-n3cc(F)cn3)cn2)C1(C)C [Compound E087]
The IC50 of the first is 8.7-fold lower: 0.00501 µM for the first, 0.0437 µM for the second.

First: O=C(Nc1ccc(Oc2cc(F)cc(F)c2)cn1)N1CCC[C@@H]1CO [Compound E132]
Second: CCN(C[C@@H](O)C(F)(F)F)C(=O)Nc1ccc(Oc2cc(F)cc(F)c2)cn1 [Compound E117]
The IC50 of the first is 280-fold higher: 0.575 µM for the first, 0.00204 µM for the second.

Compared with `CC1(C(=O)Nc2ccc(Oc3ccc(F)c(F)c3)cn2)CCOCC1` [Compound E027], `CC1(C(=O)Nc2ccc(Oc3ccc(F)c(F)c3)cn2)CC1` [Compound E032] is 16-fold lower in IC50: 3.16 µM for the first, 0.2 µM for the second.

Compared with `CC1(C)CC1C(=O)Nc1cnc(-c2cc(F)ccc2F)cn1` (stereo not shown) [Compound E226, N-[5-(2,5-difluorophenyl)pyrazin-2-yl]-2,2-dimethyl-cyclopropanecarboxamide], `CC1(C)CC1C(=O)Nc1cnc(-c2cccc(F)c2F)cn1` (stereo not shown) [Compound E229] is 190-fold higher in IC50: 0.0347 µM for the first, 6.61 µM for the second.

Going from `CC1(C)CC1C(=O)Nc1cnc(-c2cc(F)cc(F)c2)cn1` (stereo not shown) [Compound E228, N-[5-(3,5-difluorophenyl)pyrazin-2-yl]-2,2-dimethyl-cyclopropanecarboxamide] to `CC1(C)C(C(=O)Nc2cnc(Oc3cncc(F)c3)cn2)C1(C)C` [Compound E222], the IC50 falls from 0.0955 µM to 0.0126 µM (7.6-fold).

First: N#Cc1cc(F)cc(Oc2ccc(NC(=O)C3CC3)nc2)c1 [Compound E020]
Second: CN(C(=O)Nc1ccc(Oc2ccc(F)c(F)c2)cn1)C1CC1 [Compound E108]
The IC50 of the first is 16-fold higher: 10 µM for the first, 0.631 µM for the second.

Going from `CC1(C)C(C(=O)Nc2ccc(N3CCC(F)(F)C3)cn2)C1(C)C` [Compound E100] to `CNc1ccc(NC(=O)C2C(C)(C)C2(C)C)nc1` [Compound E079, 2,2,3,3-tetramethyl-N-[5-(methylamino)-2-pyridyl]cyclopropanecarboxamide], the IC50 rises from 0.0347 µM to 1.66 µM (48-fold).

Going from `CC1(C(=O)Nc2ccc(Oc3cccc(Cl)c3)cn2)CCOCC1` [Compound E015] to `CC1(C(=O)Nc2ccc(Oc3cccc(F)c3)cn2)CCOC1` (stereo not shown) [Compound E011], the IC50 rises from 0.0251 µM to 6.31 µM (250-fold).

First: CCN(C[C@@H](O)C(F)(F)F)C(=O)Nc1cnc(Oc2ccc(Cl)cc2F)cn1 [Compound E257]
Second: CCN(C[C@@H](O)C(F)(F)F)C(=O)Nc1cnc(Oc2cc(F)ccc2F)cn1 [Compound E241]
The IC50 of the first is 8.7-fold higher: 0.0148 µM for the first, 0.0017 µM for the second.

`CC(C)C(=O)Nc1ccc(N2CCCC2)cn1` [Compound E081, 2-methyl-N-(5-pyrrolidin-1-yl-2-pyridyl)propanamide] and `CC(C)C(=O)Nc1ccc(N2CCc3ccccc32)cn1` [Compound E095, N-(5-indolin-1-yl-2-pyridyl)-2-methyl-propanamide] are the same in IC50: 3.98 µM for the first, 3.98 µM for the second.

Going from `CC(O)(C(=O)Nc1ccc(Oc2cccc(F)c2)cn1)C(F)(F)F` (stereo not shown) [Compound E013] to `CC(C)C(=O)Nc1ccc(Oc2cccc(F)c2)cn1` [Compound E004], the IC50 falls from 0.794 µM to 0.0631 µM (13-fold).

Going from `CC1(C(=O)Nc2ccc(Oc3ccccc3F)cn2)CCOCC1` [Compound E007] to `CC(C)C(=O)Nc1ccc(Oc2cccc(F)c2F)cn1` [Compound E009], the IC50 falls from 2.51 µM to 0.0794 µM (32-fold).

Compared with `C[C@@H]1C[C@H]1C(=O)Nc1ccc(Oc2ccc(F)c(F)c2)cn1` (racemic) [Compound E048.1], `CCN(C[C@H](C)O)C(=O)Nc1ccc(Oc2ccc(F)c(F)c2)cn1` [Compound E109] is 4.6-fold higher in IC50: 0.0794 µM for the first, 0.363 µM for the second.

`CCN(C[C@@H](O)C(F)(F)F)C(=O)Nc1cc(Oc2ccc(F)cc2)ccn1` [Compound E155] and `CCN(C[C@@H](O)C(F)(F)F)C(=O)Nc1cnc(Oc2ccc(F)cc2C#N)cn1` [Compound E254] are within 1.5-fold of each other in IC50: 0.0251 µM for the first, 0.0309 µM for the second.

Going from `CC(C)C(=O)Nc1ccc(Cc2ccccc2F)cn1` [Compound E268] to `CC1(C)C(C(=O)Nc2cc3c(cn2)OCCO3)C1(C)C` [Compound E216], the IC50 falls from 0.501 µM to 0.331 µM (1.5-fold).

Source: patent US20230027929A1, “MrgprX2 Antagonists and Uses Thereof” (Dermira, Inc., priority 2019, published 2023)
